Columns and labels:
BCRP [1] = target: T1, BCRP (Homo sapiens, UniProt Q9UNQ0); test: BCRP-mediated LY vesicular transport (Sf9 membrane vesicles); assay type: biochemical; details: for inhibition at 10 min, 50 μM: human, read-out: inhibition of BCRP-driven vesicular uptake of LY
T1 construct: made in house; host or cells: Sf9 insect cells (baculovirus)
T1 sequence (Q9UNQ0 1-655): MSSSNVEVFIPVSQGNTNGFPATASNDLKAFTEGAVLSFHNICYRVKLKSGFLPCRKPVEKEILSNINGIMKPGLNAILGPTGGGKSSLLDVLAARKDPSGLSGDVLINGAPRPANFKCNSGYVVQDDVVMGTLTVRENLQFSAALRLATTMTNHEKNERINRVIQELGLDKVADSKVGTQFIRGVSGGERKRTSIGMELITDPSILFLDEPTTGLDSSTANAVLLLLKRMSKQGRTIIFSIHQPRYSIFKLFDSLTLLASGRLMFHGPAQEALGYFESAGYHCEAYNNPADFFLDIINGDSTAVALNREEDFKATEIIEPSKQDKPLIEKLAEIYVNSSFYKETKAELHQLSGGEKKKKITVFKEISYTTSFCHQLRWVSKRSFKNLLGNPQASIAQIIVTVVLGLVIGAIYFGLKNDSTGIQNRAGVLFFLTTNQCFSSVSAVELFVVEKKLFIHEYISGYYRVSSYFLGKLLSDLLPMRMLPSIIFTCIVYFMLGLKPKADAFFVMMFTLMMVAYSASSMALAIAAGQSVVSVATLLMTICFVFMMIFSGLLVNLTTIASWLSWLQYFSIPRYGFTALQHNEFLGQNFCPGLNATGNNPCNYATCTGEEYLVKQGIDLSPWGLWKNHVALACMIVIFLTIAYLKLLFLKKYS
Description: Experiments were performed in insect membrane vesicles, as described previously. Briefly, human MDR1, BCRP, and MRP2 were expressed in Sf9 insect cells by baculoviruses. On the third day of infection, cells were collected and membrane vesicles were obtained by mechanical disruption and differential centrifugation. To get full activity for BCRP, the cholesterol levels of the vesicles were adjusted to the level of mammalian membranes. Vesicles were stored at −80 °C, and the total protein content of the preparations was measured by the Lowry method (used as a reference for the quantity). Membrane vesicles (50 μg protein/sample) were incubated at 37 °C for 10 min (without or with 4 mM Mg-ATP) in 50 μL volume in the presence of transporter-specific fluorescent substrates: N-methylquinidine (NMQ; 5 μM) for MDR1, lucifer yellow (LY; 10 μM) for BCRP, and 5(6)-carboxy-2′,7′-dichlorofluorescein (CDCF; 5 μM) for MRP2. […] ATP-dependent (4 mM) uptake of fluorescent substrates was examined in the presence of 0–50 μM concentrations of mycotoxins (ZEN, Z14S, or Z14GA). […] After incubation, samples were rapidly filtered and washed on a filter plate (MSFBN6B10; Millipore, Burlington, MA). Accumulated substrates in vesicles were solved back from the filter with 100 μL of SDS (10%) and centrifuged into another plate. A 100 μL volume of fluorescence stabilizer was added to the samples (DMSO for LY, 0.1 M H2SO4 for NMQ, and 0.1 M NaOH for CDCF). Fluorescence of samples was measured by plate readers (Victor X3 and Enspire PerkinElmer; Waltham, MA) at appropriate wavelengths (filters in the Victor X3 reader were 405/535 nm for LY and 492/635 nm for CDCF; while in the Enspire reader, NMQ was measured at 360/430 nm excitation/emission wavelengths). ABC-related transport was calculated by subtracting passive uptake measured without Mg-ATP from values measured in the presence of Mg-ATP.

MDR1 = target: T2, MDR1 (Homo sapiens, UniProt P08183); test: MDR1 vanadate-sensitive ATPase activity assay; assay type: biochemical; details: up to 50 μM; Sf9 membrane vesicles
T2 construct: made in house; host or cells: Sf9 insect cells (baculovirus)
Description: (§1) ATPase activity was determined in Sf9 membrane vesicles containing human MDR1 or human BCRP prepared as described. − Appropriate amounts of vesicles (10 μg/50 μL) were used in the assays. Membrane vesicles were incubated with Mg-ATP (3 mM) for 25 min at 37 °C. Effects of the test compounds were examined up to 50 μM concentrations. […] ABC transporter function was determined as vanadate-sensitive ATPase activity. Liberated inorganic phosphate (Pi) was measured by a colorimetric reaction, as it has been reported. After 25 min, absorbance values were determined at 660 nm by a VictorX plate reader (PerkinElmer).

BCRP [2] = target: T1, BCRP; test: BCRP vanadate-sensitive ATPase activity assay; assay type: biochemical; details: for effect on BCRP-dependent ATPase activity: up to 50 μM, Z14S effect seen even at 2 μM
Description: as §1

CYP1A2 = target: T3, CYP1A2 (Homo sapiens, UniProt P05177); details: each 20 μM; 0.2 vol % DMSO
T3 sequence (P05177 1-516): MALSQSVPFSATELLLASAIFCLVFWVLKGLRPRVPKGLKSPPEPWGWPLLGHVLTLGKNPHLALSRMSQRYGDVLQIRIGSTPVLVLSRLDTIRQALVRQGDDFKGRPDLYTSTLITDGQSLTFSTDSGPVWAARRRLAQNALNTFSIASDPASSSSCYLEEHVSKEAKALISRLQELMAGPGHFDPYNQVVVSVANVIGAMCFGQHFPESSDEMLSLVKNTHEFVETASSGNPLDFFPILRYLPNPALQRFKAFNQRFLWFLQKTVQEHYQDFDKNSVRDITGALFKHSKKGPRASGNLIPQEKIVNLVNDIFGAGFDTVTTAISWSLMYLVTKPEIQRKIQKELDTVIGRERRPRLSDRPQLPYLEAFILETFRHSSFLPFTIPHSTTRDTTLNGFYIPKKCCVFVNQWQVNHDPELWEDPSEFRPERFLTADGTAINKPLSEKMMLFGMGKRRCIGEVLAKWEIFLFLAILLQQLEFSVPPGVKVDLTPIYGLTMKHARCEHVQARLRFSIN
Description: We applied 10 mM stock solutions of mycotoxins (dissolved in DMSO), and the samples (including controls and positive controls) contained uniformly 0.2 vol % DMSO.

T2 sequence (P08183 whole entry): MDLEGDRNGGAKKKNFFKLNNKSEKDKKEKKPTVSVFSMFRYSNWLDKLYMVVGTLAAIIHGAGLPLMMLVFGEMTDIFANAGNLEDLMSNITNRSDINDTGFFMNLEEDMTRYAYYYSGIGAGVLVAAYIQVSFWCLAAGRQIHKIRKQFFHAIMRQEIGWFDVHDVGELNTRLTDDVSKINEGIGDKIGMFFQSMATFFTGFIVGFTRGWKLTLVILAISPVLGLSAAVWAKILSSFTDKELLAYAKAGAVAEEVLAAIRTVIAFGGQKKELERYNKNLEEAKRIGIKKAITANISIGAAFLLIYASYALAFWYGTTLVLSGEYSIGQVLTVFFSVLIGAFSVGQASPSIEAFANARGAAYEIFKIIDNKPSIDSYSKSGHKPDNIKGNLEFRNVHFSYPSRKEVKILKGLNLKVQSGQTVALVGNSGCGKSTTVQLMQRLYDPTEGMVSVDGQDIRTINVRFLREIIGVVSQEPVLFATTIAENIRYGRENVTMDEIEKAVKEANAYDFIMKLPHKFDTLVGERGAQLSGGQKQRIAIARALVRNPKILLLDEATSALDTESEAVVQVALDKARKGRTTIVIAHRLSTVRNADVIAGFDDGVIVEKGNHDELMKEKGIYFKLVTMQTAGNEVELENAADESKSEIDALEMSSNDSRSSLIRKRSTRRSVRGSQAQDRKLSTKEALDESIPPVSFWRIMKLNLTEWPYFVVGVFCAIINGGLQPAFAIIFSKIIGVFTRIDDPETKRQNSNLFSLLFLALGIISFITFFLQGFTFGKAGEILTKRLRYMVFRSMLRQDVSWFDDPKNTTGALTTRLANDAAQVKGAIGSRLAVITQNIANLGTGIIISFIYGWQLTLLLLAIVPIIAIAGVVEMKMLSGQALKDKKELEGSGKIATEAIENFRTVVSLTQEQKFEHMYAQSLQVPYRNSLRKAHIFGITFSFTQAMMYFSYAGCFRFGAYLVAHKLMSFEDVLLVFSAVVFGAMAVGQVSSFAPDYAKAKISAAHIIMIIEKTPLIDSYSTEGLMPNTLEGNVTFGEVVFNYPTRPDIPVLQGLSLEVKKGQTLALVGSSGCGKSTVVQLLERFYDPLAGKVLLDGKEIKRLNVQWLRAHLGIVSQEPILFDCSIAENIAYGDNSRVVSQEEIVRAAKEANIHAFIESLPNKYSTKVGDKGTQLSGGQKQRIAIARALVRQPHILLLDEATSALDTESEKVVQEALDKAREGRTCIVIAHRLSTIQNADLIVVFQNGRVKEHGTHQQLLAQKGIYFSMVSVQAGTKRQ

Compound	IC50 (BCRP [1])	inhibition at 10 min, 50 μM (BCRP [1]; LY 10 μM)	effect on MDR1 ATPase activity (MDR1)	effect on basal ATPase activity of BCRP (BCRP [2]; 50 μM)	effect on BCRP-dependent ATPase activity (BCRP [2])	effect on BCRP-driven vesicular uptake of LY (BCRP [1]; 0–50 μM, LY 10 μM)	inhibition of CYP1A2 activity (CYP1A2)
C[C@H]1CCCC(=O)CCC/C=C/c2cc(O)cc(O)c2C(=O)O1 [ZEN, Zearalenone]	2.6 µM	> 90%	considerable elevation even at 5 μM concentration	slight inhibition	no relevant impact	–	–
C[C@H]1CCCC(=O)CCC/C=C/c2cc(O[C@@H]3O[C@H](C(=O)O)[C@@H](O)[C@H](O)[C@H]3O)cc(O)c2C(=O)O1 [Z14GA, Zearalenone-14-glucuronide]	–	–	did not modify	–	did not affect	weak inhibitory action	no effects
C[C@H]1CCCC(=O)CCC/C=C/c2cc(OS(=O)(=O)O)cc(O)c2C(=O)O1 [Z14S, zearalenone-14-sulfate]	4.4 µM	> 90%	did not modify	–	moderate increase	–	did not influence
